Assay results reported in ChEMBL document CHEMBL1141801, “N-(jasmonoyl)tyrosine-derived compounds from flowers of broad beans (Vicia faba)” (J Nat Prod, 2005).
Activity calls are given as the source filed them. The calls are words filed in the database; no cut-off is given here.

Experiments:
[1] = target: T1, Tyrosinase (Agaricus bisporus) (UniProt O42713); assay: Activity of mushroom tyrosinase assessed as specific activity pkat per mg of protein
T1 sequence (whole entry): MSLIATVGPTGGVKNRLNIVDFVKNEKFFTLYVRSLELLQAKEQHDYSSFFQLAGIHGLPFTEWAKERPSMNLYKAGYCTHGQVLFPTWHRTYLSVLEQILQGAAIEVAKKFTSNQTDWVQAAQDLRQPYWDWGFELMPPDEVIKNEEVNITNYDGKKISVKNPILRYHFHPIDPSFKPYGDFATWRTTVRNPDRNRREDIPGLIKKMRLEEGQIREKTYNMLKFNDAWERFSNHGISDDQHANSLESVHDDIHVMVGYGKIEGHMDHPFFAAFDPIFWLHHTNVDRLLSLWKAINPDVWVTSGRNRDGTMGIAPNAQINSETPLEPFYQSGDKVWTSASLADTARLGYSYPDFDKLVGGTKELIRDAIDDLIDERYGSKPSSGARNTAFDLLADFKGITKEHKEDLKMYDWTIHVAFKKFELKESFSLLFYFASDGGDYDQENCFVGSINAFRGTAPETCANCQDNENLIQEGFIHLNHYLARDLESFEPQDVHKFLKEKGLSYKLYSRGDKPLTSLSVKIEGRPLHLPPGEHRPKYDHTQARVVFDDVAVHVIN

[2] = test system: Eschscholzia californica; assay: Elicitor activity in Eschscholzia californica Cham. assessed as elicitation of chelirubine formation at 30 uM; assay type: functional, organism-based
[3] = test system: Eschscholzia californica; assay: Elicitor activity in Eschscholzia californica Cham. assessed as elicitation of chelirubine formation at 300 uM; assay type: functional, organism-based
[4] = test system: Eschscholzia californica; assay: Elicitor activity in Eschscholzia californica Cham. assessed as elicitation of chelirubine formation; assay type: functional, organism-based

| Structure (SMILES) | Activity [1] | Activity [2] | Activity [3] | Activity [4] |
| --- | --- | --- | --- | --- |
| N[C@@H](Cc1ccc(O)cc1)C(=O)O | 15600 | – | – | – |
| CC/C=C\CC1C(=O)CCC1CC(=O)N[C@@H](Cc1ccc(O)cc1)C(=O)O (mixture of isomers) | 2320 | – | – | – |
| CC/C=C\CC1C(=O)CCC1CC(=O)NCCc1ccc(O)c(O)c1 (racemic) | – | Active | Active | – |
| CC/C=C\CC1C(=O)CCC1CC(=O)NCCc1ccc(O)cc1 (racemic) | 5630 | Active | Active | – |
| CC/C=C\CC1C(=O)CCC1CC(=O)O (racemic) | – | – | – | Active |
